The assay concerns the target T1, human capsaicin receptor (Homo sapiens, UniProt Q8NER1).
T1 construct: expression consrtuct encoding the full length human capsaicin receptor; expressed in transfected cells
Description: Antagonist assay for Capsaicin receptor mediated calcium mobilization. The class given is cell-based. The note with it: Table III, read-out: EC50 (the source's name). As to the method: Calcium Mobilization Assay
Cells transfected with expression plasmids (as described in Example 10) and thereby expressing the human capsaicin receptor are seeded and grown to 70-90% confluency in FALCON black-walled, clear-bottomed 96-well plates (#3904, BECTON-DICKINSON, Franklin Lakes, N.J.) . The culture media are emptied from the 96 well plates and FLUO-3 AM calcium sensitive dye (Molecular Probes, Eugene, OR) is added to each well (dye solution: 1 mg FLUO-3 AM, 440 uL DMSO and 440 ul 20% pluronic acid in DMSO, diluted 1:4, 50 ul diluted solution per well). Plates are covered with aluminum foil and incubated at 37° C for 1-2 hours in an environment containing 5% CO2. After the incubation the dye is emptied from the plates, and the cells are washed once with Krebs-Ringer HEPES (KRH) buffer (25 mM HEPES, 5 mM KCl, 0.96 mM NaH2PO4, 1 MM MgSO4, 2 mM CaCl2, 5 mM glucose, 1 mM probenecid, pH 7.4), and resuspended in KRH buffer.
Agonist (e.g., olvanil, capsaicin, or RTX)-induced calcium mobilization is monitored using either FLUOROSKAN ASCENT (Labsystems, Franklin, Mass.) or FLIPR (fluorometric imaging plate reader system, Molecular Devices, Sunnyvale, Calif.) instruments. Similarly, varying concentrations of the antagonists ruthenium red or capsazepine are added to cells concurrently with agonist (e.g., 25-50 nM capsaicin). For agonist-induced calcium responses, data obtained between 30 and 60 seconds after agonist application are used to generate the EC50 values. […] software (Synergy Software, Reading, Pa.) was utilized to fit the data to the equation: […]
to determine the EC50 for the response. In this equation, y is the maximum fluorescence signal, x is the concentration of the agonist or antagonist, a is the Emax, b corresponds to the EC50 or IC50 value, and finally, c is the Hill coefficient.
Assay for Determination of Capsaicin Receptor Antagonist Effects
In order to measure the ability of a test compound to antagonize (inhibit) the response of cells expressing capsaicin receptors to capsaicin or other vanilloid agonist, the EC50 of capsaicin is first determined.
An additional 20 ul of KRH buffer and 1 ul DMSO is added to each well of cells, prepared as described above. 100 ul capsaicin in KRH buffer is automatically transferred by the FLIPR instrument to each well.
Test compounds are dissolved in DMSO, diluted in 20 ul KRH buffer so that the final concentration of test compounds in the assay well is between 1 uM and 5 uM, and added to cells prepared as described above. The 96 well plates containing prepared cells and test compounds are incubated in the dark, at room temperature for 0.5-6 hours. It is important that the incubation not continue beyond 6 hours. Just prior to determining the fluorescence response, 100 ul capsaicin in KRH buffer at twice the EC50 concentration determined from the concentration response curve is automatically added by the FLIPR instrument to each well of the 96 well plate for a final sample volume of 200 ul and a final capsaicin concentration equal to the EC50. The final concentration of test compounds in the assay wells is between 1 uM and 5 uM. […] Antagonists of the capsaicin receptor decrease this response by about 20%, preferably by about 50%, and most preferably by at least 80% as compared to matched control. The concentration of antagonist required to provide a 50% decrease is the EC50 for the antagonist (also referred to as the IC50).
On the technique in general: A change in cytosolic calcium serves as a functional read-out for many receptors and channels.

T1 sequence (Q8NER1 whole entry): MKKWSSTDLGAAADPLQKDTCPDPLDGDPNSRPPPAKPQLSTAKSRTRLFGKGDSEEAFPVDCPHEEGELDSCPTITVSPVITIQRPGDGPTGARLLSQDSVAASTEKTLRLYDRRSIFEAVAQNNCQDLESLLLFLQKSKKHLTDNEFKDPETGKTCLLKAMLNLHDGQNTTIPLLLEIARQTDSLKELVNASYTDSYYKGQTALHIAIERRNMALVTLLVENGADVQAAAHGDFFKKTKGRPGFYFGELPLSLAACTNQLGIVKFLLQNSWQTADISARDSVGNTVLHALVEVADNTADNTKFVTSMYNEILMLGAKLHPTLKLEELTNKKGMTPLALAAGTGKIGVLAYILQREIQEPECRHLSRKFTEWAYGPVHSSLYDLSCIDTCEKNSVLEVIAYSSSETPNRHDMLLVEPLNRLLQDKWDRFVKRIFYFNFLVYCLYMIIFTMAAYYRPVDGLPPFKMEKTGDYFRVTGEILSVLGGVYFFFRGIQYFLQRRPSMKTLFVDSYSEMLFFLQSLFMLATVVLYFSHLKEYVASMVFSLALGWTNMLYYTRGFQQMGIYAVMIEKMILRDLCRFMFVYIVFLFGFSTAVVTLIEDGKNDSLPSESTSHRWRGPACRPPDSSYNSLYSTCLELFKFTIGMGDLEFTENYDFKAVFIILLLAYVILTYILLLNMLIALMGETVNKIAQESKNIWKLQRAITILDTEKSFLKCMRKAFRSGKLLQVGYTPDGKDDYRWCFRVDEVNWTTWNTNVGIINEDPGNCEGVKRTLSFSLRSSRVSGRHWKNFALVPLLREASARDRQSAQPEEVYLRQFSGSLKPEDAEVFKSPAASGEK

As to `C[C@@H]1CN(c2ncccc2Cl)CCN1C(=O)Nc1ccc(C2CCCCC2)cc1` [Compound 18, (2R)-4-(3-chloropyridin-2-yl)-N-(4-cyclohexylphenyl)-2-methylpiperazine-1-carboxamide], the IC50 was under 1000 nM.
Regarding `C[C@@H]1CN(c2ncccc2Cl)CCN1C(=O)Nc1ccc(C(F)(F)F)cc1` [Compound 20, (2R)-4-(3-chloropyridin-2-yl)-2-methyl-N-[4-(trifluoromethyl)phenyl]piperazine-1-carboxamide], the IC50 was under 1000 nM.
Then `C[C@@H]1CN(c2ncccc2Cl)CCN1C(=O)Nc1ccc(C(C)(C)C)cc1` [Compound 21, (2R)-N-(4-tert-butylphenyl)-4-(3-chlorpyridin-2-yl)-2-methylpiperazine-1-carboxamide], with under 1000 nM; and `CC(C)c1ccc(NC(=O)N2CCN(c3ncccc3Cl)C[C@H]2C)cc1` [Compound 22, (2R)-4-(3-chloropyridin-2-yl)-N-(4-isopropylphenyl)-2-methylpiperazine-1-carboxamide], with under 1000 nM; and `C[C@H]1CN(c2ncccc2Cl)CCN1C(=O)Nc1ccc(C(F)(F)F)cc1` [Compound 23, (2S)-4-(3-chloropyridin-2-yl)-N-(4-trifluoromethylphenyl)-2-methylpiperazine-1-carboxamide], with under 1000 nM.
On to `C[C@H]1CN(c2ncccc2Cl)CCN1C(=O)Nc1ccc(C(C)(C)C)cc1` [Compound 24, (2S)-N-(4-tert-butylphenyl)-4-(3-chloropyridin-2-yl)-2-methylpiperazine-1-carboxamide], for which the IC50 is under 1000 nM.
In the case of `C[C@@H]1CN(c2ncccc2Cl)CCN1C(=O)Nc1ccc(N2CCCCC2)cc1` [Compound 26, (2R)-4-(3-chloropyridin-2-yl)-2-methyl-N-(4-piperidin-1-ylphenyl)piperazine-1-carboxamide], the IC50 is under 1000 nM.
`C[C@@H]1CN(c2ncccc2Cl)CCN1C(=O)Nc1ccc(C(F)(F)F)cc1F` [Compound 27, (2R)-4-(3-chloropyridin-2-yl)-N-[2-fluoro-4-(trifluoromethyl)phenyl]-2-methylpiperazine-1-carboxamide]: the IC50 was under 1000 nM.
As to `C[C@@H]1CN(c2ncccc2C(F)(F)F)CCN1C(=O)Nc1ccc(C(F)(F)F)cc1` [Compound 28, (2R)-2-methyl-N-[4-(trifluoromethyl)phenyl]-4-[3-(trifluoromethyl)pyridin-2-yl]piperazine-1-carboxamide], the IC50 is under 1000 nM.
For `C[C@@H]1CN(c2ncccc2C(F)(F)F)CCN1C(=O)Nc1ccc(C(C)(C)C)cc1` [Compound 29, (2R)-N-(4-tert-butylphenyl)-2-methyl-4-[3-(trifluoromethyl)pyridin-2-yl]piperazine-1-carboxamide], the IC50 was under 1000 nM.
As to `CC(C)c1ccc(NC(=O)N2CCN(c3ncccc3C(F)(F)F)C[C@H]2C)cc1` [Compound 30, (2R)-N-(4-isopropylphenyl)-2-methyl-4-[3-(trifluoromethyl)pyridin-2-yl]piperazine-1-carboxamide], the IC50 is under 1000 nM.
The result for `CC1CN(c2ncccc2Cl)CC(C)N1C(=O)Nc1ccc(C(F)(F)F)cc1` (centres unmarked) [Compound 31, 4-(3-chloropyridin-2-yl)-2,6-dimethyl-N-[4-(trifluoromethyl)phenyl]piperazine-1-carboxamide] reads under 1000 nM.
In the case of `CC1CN(c2ncccc2Cl)CC(C)N1C(=O)Nc1ccc(C(C)(C)C)cc1` (centres unmarked) [Compound 32, N-(4-tert-butylphenyl)-4-(3-chloropyridin-2-yl)-2,6-dimethylpiperazine-1-carboxamide], the IC50 was under 1000 nM.
The result for `CC(C)c1ccc(NC(=O)N2C(C)CN(c3ncccc3Cl)CC2C)cc1` (centres unmarked) [Compound 33, 4-(3-chloropyridin-2-yl)-N-(4-isopropylphenyl)-2,6-dimethylpiperazine-1-carboxamide] reads under 1000 nM; that for `C[C@@H]1CN(c2ncccc2C(F)(F)F)CCN1C(=O)Nc1ccc(C2CCCCC2)cc1` [Compound 34, (2R)-N-(4-cyclohexylphenyl)-2-methyl-4-[3-(trifluoromethyl)pyridin-2-yl]piperazine-1-carboxamide], under 1000 nM.
Turning to `CC1CN(c2ncccc2Cl)CC(C)N1C(=O)Nc1ccc(C2CCCCC2)cc1` (centres unmarked) [Compound 35, 4-(3-chloropyridin-2-yl)-N-(4-cyclohexylphenyl) 2,6-dimethylpiperazine-1-carboxamide], the IC50 was under 1000 nM.
The result for `C[C@@H]1CN(c2ncccc2Cl)CCN1C(=O)Nc1ccc(C2CCCC2)cc1` [Compound 36, (2R)-4-(3-chloropyridin-2-yl)-N-(4-cyclopentylphenyl)-2-methylpiperazine-1-carboxamide] reads under 1000 nM; that for `C[C@@H]1CN(c2ncccc2C(F)(F)F)CCN1C(=O)Nc1ccc(C2CCCC2)cc1` [Compound 37, (2R)-N-(4-cyclopentylphenyl)-2-methyl-4-[3-(trifluoromethyl)pyridin-2-yl]piperazine-1-carboxamide], under 1000 nM.
The result for `C[C@@H]1CN(c2nccc3ccccc23)CCN1C(=O)Nc1ccc(C(F)(F)F)cc1` [Compound 38, (2R)-4-isoquinolin-1-yl-2-methyl-N-[4-(trifluoromethyl)phenyl]piperazine-1-carboxamide] reads under 1000 nM.
In the case of `C[C@@H]1CN(c2nccc3ccccc23)CCN1C(=O)Nc1ccc(C(C)(C)C)cc1` [Compound 39, (2R)-N-(4-tert-butylphenyl)-4-isoquinolin-1-yl-2-methylpiperazine-1-carboxamide], the IC50 was under 1000 nM.
For the compound `CC(C)c1ccc(NC(=O)N2CCN(c3nccc4ccccc34)C[C@H]2C)cc1` [Compound 40, (2R)-N-(4-isopropylphenyl)-4-isoquinolin-1-yl-2-methylpiperazine-1-carboxamide], the IC50 was under 1000 nM.
Take `C[C@@H]1CN(c2nccc3ccccc23)CCN1C(=O)Nc1ccc(C2CCCC2)cc1` [Compound 41, (2R)-N-(4-cyclopentylphenyl)-4-isoquinolin-1-yl-2-methylpiperazine-1-carboxamide]: the IC50 was under 1000 nM.
Then `C[C@@H]1CN(c2nccc3ccccc23)CCN1C(=O)Nc1ccc(C2CCCCC2)cc1` [Compound 42, (2R)-N-(4-cyclohexylphenyl)-4-isoquinolin-1-yl-2-methylpiperazine-1-carboxamide], with under 1000 nM; and `C[C@@H]1CN(c2ncccc2N(C)C)CCN1C(=O)Nc1ccc(C(C)(C)C)cc1` [Compound 43, (2R)-N-(4-tert-butylphenyl)-4-[3-(dimethylamino)pyridin-2-yl]-2-methylpiperazine-1-carboxamide], with under 1000 nM; and `C[C@@H]1CN(c2ncccc2N(C)C)CCN1C(=O)Nc1ccc(C(F)(F)F)cc1` [Compound 44], with under 1000 nM.
For `COc1cccnc1N1CCN(C(=O)Nc2ccc(C(C)(C)C)cc2)[C@H](C)C1` [Compound 45, (2R)-N-(4-tert-butylphenyl)-4-(3-methoxypyridin-2-yl)-2-methylpiperazine-1-carboxamide], the IC50 was under 1000 nM.
The result for `COc1cccnc1N1CCN(C(=O)Nc2ccc(C3CCCCC3)cc2)[C@H](C)C1` [Compound 47, (2R)-N-(4-cyclohexylphenyl)-4-(3-methoxypyridin-2-yl)-2-methylpiperazine-1-carboxamide] reads under 1000 nM.
Then `C[C@@H]1CN(c2ncccc2Cl)CCN1C(=O)Nc1ccc(C2=CCOCC2)cc1` [Compound 48, (2R)-4-(3-chloropyridin-2-yl)-N-[4-(3,6-dihydro-2H-pyran-4-yl)phenyl]-2-methylpiperazine-1-carboxamide], with under 1000 nM.
With `C[C@@H]1CN(c2ncccc2Cl)CCN1C(=O)Nc1ccc(C2CCOCC2)cc1` [Compound 49, (2R)-4-(3-chloropyridin-2-yl)-2-methyyl-N-(4-tetrahydro-2H-pyran-4-ylphenyl)piperazne-1-carboxamide], the IC50 was under 1000 nM.

Values taken from patent US20020132853A1, “Capsaicin receptor ligands” (priority 2000, published 2002).
